This is an account of results in ChEMBL document CHEMBL1141163, “QSAR studies of copper azamacrocycles and thiosemicarbazones: MM3 parameter development and prediction of biological properties” (J Med Chem, 2005).

The data set in a line: Partition coefficient (logP). Type of data set: physicochemical. Conditions: octanol/water.

In general, logP refers to a log measure of how a compound divides between an organic and an aqueous phase. Low readings indicate lower lipophilicity, high ones higher lipophilicity.

Take Copper(II) Complex: the logP is given as -2.29.
